This note sets out measurements from patent publication US8017775B2, “1-2-dihydroquinoline derivative having glucocorticoid receptor binding activity” (Santen Pharmaceutical Co., Ltd., priority 2005, dated 2011).

In the assay the target is T1, Recombinant human GR (Homo sapiens, UniProt P04150).
T1 construct: purchased Invitrogen P2816
T1 sequence (P04150 1-777): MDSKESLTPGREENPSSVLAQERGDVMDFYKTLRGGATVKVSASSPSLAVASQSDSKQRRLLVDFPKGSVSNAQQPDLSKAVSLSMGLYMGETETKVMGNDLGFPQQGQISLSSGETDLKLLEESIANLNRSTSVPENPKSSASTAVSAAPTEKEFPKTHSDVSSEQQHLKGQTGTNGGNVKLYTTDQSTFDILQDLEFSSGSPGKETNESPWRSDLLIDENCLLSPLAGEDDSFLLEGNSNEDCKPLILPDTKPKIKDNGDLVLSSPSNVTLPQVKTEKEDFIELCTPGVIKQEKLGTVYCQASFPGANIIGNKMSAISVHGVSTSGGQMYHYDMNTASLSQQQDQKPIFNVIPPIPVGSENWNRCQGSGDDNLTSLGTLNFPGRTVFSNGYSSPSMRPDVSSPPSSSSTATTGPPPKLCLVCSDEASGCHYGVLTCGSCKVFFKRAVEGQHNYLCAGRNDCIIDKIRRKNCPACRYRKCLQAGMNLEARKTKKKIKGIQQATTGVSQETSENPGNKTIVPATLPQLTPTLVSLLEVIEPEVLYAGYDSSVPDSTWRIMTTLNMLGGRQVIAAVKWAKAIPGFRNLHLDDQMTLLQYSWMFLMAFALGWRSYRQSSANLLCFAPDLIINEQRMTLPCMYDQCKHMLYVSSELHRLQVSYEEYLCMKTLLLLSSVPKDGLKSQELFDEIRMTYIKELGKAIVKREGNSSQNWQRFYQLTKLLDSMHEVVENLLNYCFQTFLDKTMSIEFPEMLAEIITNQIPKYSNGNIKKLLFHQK
The assay is described as follows: GR competitor assay by fluorescence polarization (GR binding ratio). As to conditions: positive control 2 mM dexamethasone, a GR binding ratio of 100% or more is indicated by 100%. (In general: Polarisation of emitted light reports the rotation of a fluorescent probe.)

Bounds are passed on as bounds.

For the molecule `COc1cc(F)ccc1-c1ccc2c(c1CNc1cc(F)ccc1C)C(C)=CC(C)(C)N2` [Compound 6-57, 6-(4-Fluoro-2-methoxyphenyl)-5-(5-fluoro-2-methylphenylaminomethyl)-2,2,4-trimethyl-1,2-dihydroquinoline], the “GR Binding ratio (%)” value is ≥ 100%. `COc1cc(F)c(F)cc1-c1ccc2c(c1COC(=O)c1cccs1)C(C)=CC(C)(C)N2` [Compound 12-53, 6-(4,5-Difluoro-2-methoxyphenyl)-5-[(thiophen-2-yl)carbonyloxymethyl]-2,2,4-trimethyl-1,2-dihydroquinoline]: the “GR Binding ratio (%)” value is reported as ≥ 100%.

Take `CCOc1ccccc1NCc1c(-c2ccc(F)cc2OC)ccc2c1C(C)=CC(C)(C)N2` [Compound 6-24, 5-(2-Ethoxyphenylaminomethyl)-6-(4-fluoro-2-methoxyphenyl)-2,2,4-trimethyl-1,2-dihydroquinoline]: the “GR Binding ratio (%)” value is ≥ 100%. For `COc1cc(F)ccc1-c1ccc2c(c1COC(=O)c1sccc1Cl)C(C)=CC(C)(C)N2` [Compound 12-17, 5-[(3-Chlorothiophen-2-yl)carbonyloxymethyl]-6-(4-fluoro-2-methoxyphenyl)-2,2,4-trimethyl-1,2-dihydroquinoline], the “GR Binding ratio (%)” value is listed as ≥ 100%. Consider `COc1cc(F)ccc1-c1ccc2c(c1COc1cc(Cl)ccc1Cl)C(C)=CC(C)(C)N2` [Compound 3-85, 5-(2,5-Diclorophenoxymethyl)-6-(4-fluoro-2-methoxyphenyl)-2,2,4-trimethyl-1,2-dihydroquinoline], for which the “GR Binding ratio (%)” value is listed as 95%. `CCc1ccccc1NCc1c(-c2ccc(F)cc2OC)ccc2c1C(C)=CC(C)(C)N2` [Compound 6-45, 5-(2-Ethylphenylaminomethyl)-6-(4-fluoro-2-methoxyphenyl)-2,2,4-trimethyl-1,2-dihydroquinoline]: the “GR Binding ratio (%)” value is 96%.

`COc1cc(F)ccc1-c1ccc2c(c1COc1ccccc1C(C)C)C(C)=CC(C)(C)N2` [Compound 3-69, 5-(2-Isopropylphenoxymethyl)-6-(4-fluoro-2-methoxyphenyl)-2,2,4-trimethyl-1,2-dihydroquinoline]: the “GR Binding ratio (%)” value is ≥ 100%. For the molecule `COc1ccccc1NCc1c(-c2cc(F)ccc2OC)ccc2c1C(C)=CC(C)(C)N2` [Compound 6-75, 6-(5-Fluoro-2-methoxyphenyl)-5-(2-methoxyphenylaminomethyl)-2,2,4-trimethyl-1,2-dihydroquinoline], the “GR Binding ratio (%)” value was ≥ 100%. To `C/C=C/c1ccccc1OCc1c(-c2ccc(F)cc2OC)ccc2c1C(C)=CC(C)(C)N2` [Compound 3-62, 6-(4-Fluoro-2-methoxyphenyl)-5-[2-(1-propenyl)phenoxymethyl]-2,2,4-trimethyl-1,2-dihydroquinoline] belongs ≥ 100%.

As for `COc1cc(F)ccc1-c1ccc2c(c1CNc1ccccc1C(C)C)C(C)=CC(C)(C)N2` [Compound 6-47, 6-(4-Fluoro-2-methoxyphenyl)-5-(2-isopropylphenylaminomethyl)-2,2,4-trimethyl-1,2-dihydroquinoline], the “GR Binding ratio (%)” value was ≥ 100%.

`COc1ccc(C(F)(F)F)cc1-c1ccc2c(c1COc1cc(F)ccc1C)C(C)=CC(C)(C)N2` [Compound 14-15, 5-(5-Fluoro-2-methylphenoxymethyl)-6-(2-methoxy-5-trifluoromethylphenyl)-2,2,4-trimethyl-1,2-dihydroquinoline]: the “GR Binding ratio (%)” value worked out at 99%.

Regarding `COc1cc(F)ccc1-c1ccc2c(c1COc1cc(F)ccc1C)C(C)=CC(C)(C)N2` [Compound 3-48, 6-(4-Fluoro-2-methoxyphenyl)-5-(5-fluoro-2-methylphenoxymethyl)-2,2,4-trimethyl-1,2-dihydroquinoline], the “GR Binding ratio (%)” value is given as ≥ 100%. With `COc1cc(F)ccc1-c1ccc2c(c1COc1cccc(C)c1)C(C)=CC(C)(C)N2` [Compound 3-21, 6-(4-Fluoro-2-methoxyphenyl)-5-(3-methylphenoxymethyl)-2,2,4-trimethyl-1,2-dihydroquinoline], the “GR Binding ratio (%)” value is 97%.
